Test results taken from PubChem BioAssay AID504655 (Southern Research Specialized Biocontainment Screening …, 2011).
The source made the active and inactive calls. The rule behind the calls is not given here.

These compounds were tested on HEp-2 cells, RSV CPE inhibition, cell viability (assay: inhibitors of RSV cytopathic effect, dose response, cell-based, HEp-2, synthesized compounds, set 7 (AID 504655)).
In the case of `O=C(NCc1ccc(Cl)cc1)C1CCN(S(=O)(=O)c2cccc3nonc23)CC1`, the IC50 is reported as > 50 µM (inactive). `COCCCNC(=O)c1ccc(Cn2c(=O)c3ccc(C)cc3n(Cc3ccc(C)cc3)c2=O)cc1` was tested, and the IC50 was > 50 µM (inactive). For `Cc1ccc(Cn2c(=O)n(Cc3ccc(C(=O)NC4CCCCC4)cc3)c(=O)c3ccccc32)cc1`, the IC50 was > 50 µM (inactive). With `CNC(=O)c1ccc(Cn2c(=O)c3ccccc3n(Cc3ccc(C)cc3)c2=O)cc1` the IC50 was 2.26 µM. `COCCNC(=O)c1ccc(Cn2c(=O)c3ccccc3n(Cc3ccc(C)cc3)c2=O)cc1` was tested, and the IC50 was 3.05 µM. For `Cc1ccc(Cn2c(=O)n(Cc3ccc(C(=O)N4CCCC4)cc3)c(=O)c3ccccc32)cc1`, the IC50 was > 50 µM (inactive). For `O=C(NCc1cccc(Cl)c1)C1CCN(S(=O)(=O)c2cccc3nonc23)CC1`, the IC50 was > 50 µM (inactive). With `Cc1ccc(CNC(=O)C2CCN(S(=O)(=O)c3cccc4nonc34)CC2)c(C)c1` the IC50 was > 50 µM (inactive). With `COc1ccc(C)c(NC(=O)[C@@H]2CCCN2S(=O)(=O)c2cccc3cccnc23)c1` the IC50 was 9.33 µM. For `Cc1ccc(Cn2c(=O)n(Cc3ccc(C(=O)NCc4ccccc4)cc3)c(=O)c3ccccc32)cc1`, the IC50 was > 50 µM (inactive). `Cc1ccc(Cn2c(=O)n(Cc3ccc(C(=O)N(C)C)cc3)c(=O)c3ccccc32)cc1` was tested, and the IC50 was > 50 µM (inactive). In the case of `COCCCNC(=O)c1ccc(Cn2c(=O)c3ccc(C(F)(F)F)cc3n(Cc3ccc(C)cc3)c2=O)cc1`, the IC50 is reported as > 50 µM (inactive). For `COCCCNC(=O)c1ccc(Cn2c(=O)c3ccc(OC)cc3n(Cc3ccc(C)cc3)c2=O)cc1`, the IC50 was > 50 µM (inactive). For `Cc1ccc(Cn2c(=O)n(Cc3ccc(C(=O)N4CCCCC4)cc3)c(=O)c3ccccc32)cc1`, the IC50 was > 50 µM (inactive). `COc1ccccc1CNC(=O)[C@@H]1CCCN1S(=O)(=O)c1cccc2nonc12` was tested, and the IC50 was > 50 µM (inactive). `Cc1ccc(Cl)cc1NC(=O)[C@@H]1CCCN1S(=O)(=O)c1cccc2cccnc12` was tested, and the IC50 was 6.11 µM. `COc1ccccc1NC(=O)[C@@H]1CCCN1S(=O)(=O)c1cccc2nonc12` was tested, and the IC50 was > 50 µM (inactive). `Cc1ccc(Cn2c(=O)n(Cc3ccc(C(=O)N4CCOCC4)cc3)c(=O)c3ccccc32)cc1` was tested, and the IC50 was > 50 µM (inactive). In the case of `Cc1ccc(Cn2c(=O)n(Cc3ccc(C(=O)Nc4ccccc4)cc3)c(=O)c3ccccc32)cc1`, the IC50 is reported as > 50 µM (inactive). For `Cc1ccc(NC(=O)[C@@H]2CCCN2S(=O)(=O)c2cccc3nonc23)c(C)c1`, the IC50 was > 50 µM (inactive).
